Results taken from patent US20180153830A1, “SELECTIVE INHIBITORS OF UNDIFFERENTIATED CELLS” (Yissum Research Development Company of the Hebrew …, priority 2012, published 2018).
Entries after “also recorded” stand apart in the source; their conditions may differ.

Experiments:
[1] = system: phosphorylated eIF2α in hPSCs; assay: Phospho-eIF2α immunoblot, ES cells; type: cell-based, human; conditions: 20 μM PluriSIn #1 or 100 nm A939572
Procedure: For immunoblotting, 10% polyacrylamide gel was used for protein separation and detection. The gel was transferred to a nitrocellulose membrane and antibody hybridization and chemiluminescence were performed according to standard procedures. The primary antibodies in this analysis were rabbit anti-phosphorylated-eIF2a (1:250, Cell Signaling Technology), rabbit anti caspase-3 (1:1,000, Cell Signaling Technology), mouse anti β-catenin (1:10,000, BD Biosciences) and mouse anti-α-tubulin (1:50,000, Sigma-Aldrich). Horseradish peroxidase-conjugated anti-rabbit and anti-mouse secondary antibodies were obtained from Jackson Immunoresearch Laboratories.
To further study the significance of UPR, XBP1 mRNA splicing and eIF2α phosphorylation, hallmarks of UPR, were further examined. Human ES cells and ES-derived differentiated cells were treated with PluriSIn #1 for 12 hours, and expression of the spliced isoform sXBP1 was determined by quantitative PCR and by immunoblotting, as described in the Materials and Methods section. Gene expression change conferred by dithiothreitol ([…]) was used as a positive control.

[2] = system: spliced isoform sXBP1 in ES-derived differentiated cells; assay: sXBP1 quantitative PCR, differentiated cells; type: cell-based, human; conditions: 20 μM PluriSIn #1 or 100 nm A939572
[3] = system: human embryonic stem cells; assay: Oleic acid rescue assay; type: cell-based; conditions: 20 μM PluriSIn (2 μM amsacrine); up to 100 μM BSA-OA
Procedure: Human embryonic stem cells were cultured without feeder cells in CELLSTAR® 24-well tissue culture plates (Greiner Bio-One) pre-coated with Matrigel™, using mTeSR1 defined medium. […] After 24 hours, the cells were subjected to microscopy imaging and to cell viability measurements.
In order to further investigate the effect of SCD activity on hPSC viability, the ability of exogenous supplementation of oleic acid (the direct product of SCD1) to rescue cells from PluriSIn-induced apoptosis was further studied, using procedures described in the Materials and Methods section. Cells were exposed to PluriSn #1 in the presence of increasing concentrations of BSA-conjugated oleic acid (BSA-OA).
For comparison, cells were exposed to 20 μM of PluriSIn #1, #2, #3 and #6 in the presence of 100 μM BSA-OA.

[4] = system: CSES2-SO2/3 ES-derived endodermal progenitors; assay: CellTiter-Glo counter-screen, endodermal progenitors; type: cell-based; conditions: Homo sapiens; for EC50: 24 hours, differentiated cells
Procedure: CSES2-SO2/3 embryonic stem cells were differentiated to endodermal progenitors using an established protocol [Duan et al. Stem Cells 28:674-686 (2010)]. Undifferentiated cells were seeded at a density of 10,000 cells/cm^2 on MatrigelT™-coated plates, with mTeSR1 medium. The next day (day 1), medium was replaced to serum-free RPMI-1640, supplemented with 2 mM glutamine, 100 ng/ml Activin A 60 μg/ml of G418 geneticin sulfate and 0.3 μg/ml of puromycin. From day 3 to day 8, the same medium was also supplemented with 1×B27 supplement (Invitrogen) and 0.5 mM sodium butyrate. The cellular identity of the cells as endodermal progenitors was verified by quantifying the percentage of green SOX17+ cells, and the percentage of CXCR4+ cells, using a Guava® EasyCyte™ Plus flow cytometry system (Millipore). Further validation was obtained by fluorescence-staining of the cells with an antibody against the early endodermal surface marker CXCR4 (CXCR4-PE antibody, 1:25; BD Biosciences). The percentage of CXCR4+ cells was also quantified using the Guava® EasyCyte™ Plus flow cytometry system.
696 confirmed hits from the confirmation screen were tested for profiling in a panel of 13 different cell types, using the same screening protocol described above (except in the case of embryonic stem cell-derived neural stem cells (NSCs) and mesenchymal stem cells (MSCs), for which the protocol is described below). As discussed below, compounds were tested either in dose-dependent multiple concentration manner or in single concentration manner. […] BJ-iPS28 cell line and the BJ fibroblasts from which it was derived were screened at 6 concentrations ranging from 50 μM to 200 nM with 1:3 serial dilution steps. Cardiomyocytes were screened in one concentration of 20 μM. HeLa and NTERA-2 cell lines were screened in duplicates of 20 μM. Kelly and Huh-7 were screened in triplicates of 20 μM. Hepatocytes were screened in duplicates of 20 μM in the original 96-well plates in which the cells arrived (40,000 cells per well, in 160 μl medium, the volumes of all reagents involved were adjusted accordingly). MSCs and NSCs were screened in duplicates of 12.5 μM.
In order to identify highly-selective cytotoxic inhibitors of hPSCs, the 696 cytotoxic inhibitors of hPSCs identified as described in Example 1 were counter-screened as described in the Materials and Methods section against other cell types, representative of all germ layers and developmental stages. Importantly, many of these cell types were differentiated from human ES or iPS cells. The screened cell types included ES-derived neural stem cells (NSCs), ES-derived mesenchymal stem cells (MSCs), ES-derived endodermal progenitor cells, ES-derived hepatocytes, iPS-derived cardiomyocytes, iPS-derived fibroblasts of origin (BJ fibroblasts), and three cancer cell lines: neuroblastoma (Kelly), cervical cancer (HeLa) and hepatocarcinoma (Huh7). The cell types and their relationship to stem cells are depicted schematically in FIG. 14.
The identified compounds were screened at 8 concentrations using both the undifferentiated red cells and the differentiated green cells, and reliable EC50 values were thereby calculated for the genetically identical differentiated and undifferentiated cells.

## CNC(=O)c1cccc(NC(=O)N2CCC(Oc3ccccc3Cl)CC2)c1 [A939572, 4-(2-chlorophenoxy)-N-(3-(methylcarbamoyl)-phenyl)piperidine-1-carboxamide, reference compound]
[1]
  levels of phosphorylated eIF2α, ES cells: increased levels
[2]
  expression of spliced isoform sXBP1, differentiated cells: did not increase expression

## O=C(NNc1ccccc1)c1ccncc1 [PluriSIn #1, isonicotinic acid N′-phenylhydrazide]
[3]
  protection by BSA-conjugated oleic acid (BSA-OA) against cell death induced by the compound: full rescue; also recorded: protected
[1]
  levels of phosphorylated eIF2α, ES cells: increased levels
[4]
  EC50: > 50 µM
  inhibition at 20 µM: 6.5%
[2]
  expression of spliced isoform sXBP1, differentiated cells: did not increase

## O=C(Nc1ccccc1)n1cc(F)c(=O)[nH]c1=O [PluriSIn #2]
[4]
  EC50: > 50 µM
  inhibition at 20 µM: -8.3%

## Nc1cc(N)cc(COc2ccc(-c3ccccc3)cc2)c1 [PluriSIn #3]
[4]
  EC50: > 50 µM
  inhibition at 20 µM: -9.2%

## O=C(NCCc1ccc(O)cc1)c1ccc(N2CCCCC2)cc1 [PluriSIn #4]
[4]
  EC50: > 50 µM
  inhibition at 20 µM: -1.1%

## O=S(=O)(NNc1ccccc1)c1ccc2ccccc2c1 [PluriSIn #5]
[3]
  protection by BSA-conjugated oleic acid (BSA-OA) against cell death induced by the compound: protected
[4]
  EC50: > 50 µM
  inhibition at 20 µM: 12.9%

## Cc1ccc(NNC(=O)C(O)(c2ccccc2)c2cccs2)cc1 (stereo not drawn) [PluriSIn #6, 2-hydroxy-2-(thiophen-2-yl)-2-phenylacetic acid 4-methyl-N′-phenylhydrazide]
[3]
  protection by BSA-conjugated oleic acid (BSA-OA) against cell death induced by the compound: protected
[4]
  EC50: > 50 µM
  inhibition at 20 µM: -2.5%

## CC(=O)Oc1ccc(/C=C/c2ccc3c(c2)CCN3C)cc1 [PluriSIn #7]
[4]
  EC50: > 50 µM
  inhibition at 20 µM: 24.8%

## Cc1oc2ccccc2c1/C=N/Nc1ccccc1 [PluriSIn #8]
[4]
  EC50: > 50 µM
  inhibition at 20 µM: 0%

## C/C(=N\O)NNc1ccc(Cl)cc1 [PluriSIn #9]
[4]
  EC50: > 50 µM
  inhibition at 20 µM: 11.9%

## CCCCCC(=O)NNc1ccc(Cl)cc1 [PluriSIn #10]
[4]
  EC50: > 50 µM
  inhibition at 20 µM: 33.8%

## CCOC(=O)CN1CC(=O)/C(=C\NNc2ccccc2)C1=O [PluriSIn #11]
[4]
  EC50: > 50 µM
  inhibition at 20 µM: 4.3%

## CCN(CC)C(=O)C(=O)c1c(-c2ccccc2)[nH]c2c1sc1ccccc12 [PluriSIn #12]
[4]
  EC50: > 50 µM

## O=C1C=CC=C1/C=C/C(=N\Nc1ccccc1)c1ccccc1 [PluriSIn #13]
[4]
  EC50: > 50 µM
  inhibition at 20 µM: 15.8%

## O=C(NN(C(=O)c1ccccc1)c1ccccc1)c1ccc(Cl)cc1 [PluriSIn #14]
[4]
  EC50: > 50 µM
  inhibition at 20 µM: 18.8%

## C(=N\C1CCC(CC2CCCCC2)CC1)/OC1CCOC1 (stereo not drawn) [PluriSIn #15]
[4]
  EC50: > 50 µM
  inhibition at 20 µM: 2.1%
